Assay results as given in patent US7199159B2, “Use of biguanide derivatives for making a medicine having a wound healing effect” (Centre National de la Recherche Scientifique (C.N.R.S.), priority 2000, dated 2007).

System: skin wounds reproducing ulceration
Test: cicatrization of punch skin wounds (pseudo-ulcer) treated daily with metformin ointment
Assay type: in vivo, Zucker fa/fa rats
Procedure: The efficacy of metformin was tested in vivo on skin wounds reproducing ulceration. The pseudo-ulcer was produced on 14-week-old Zucker fa/fa rats by loss of matter of circular shape 8 mm in diameter made by a “punch”, down to the muscle layer. […] The speed of the cicatrization was evaluated by determining the area of the wounds with a video camera coupled to a computer equipped with image analysis software.
Furthermore, metformin at a concentration of 1% by weight relative to the lipophilic phase also appears to exert an effect on neovascularizaton.
The results of the microscopic analysis of histological sections of the wounds are collated in Table 1 below.

CN(C)C(=N)N=C(N)N [metformin]
collagen density in granulation tissue (FIG. 3, D4): increase in the collagen density | cicatrization (area of the wounds by image analysis) (daily treatment, ointment at different metformin concentrations): significant improvement in cicatrization | epidermization compared with untreated control animals (different metformin concentrations): acceleration of epidermization | closure of the treated wounds vs untreated control wounds (four metformin concentrations, FIG. 2): closure of the treated wounds is faster than of the untreated control wounds | neovascularization (density of blood capillaries on the edges of the wound) (metformin 1%, D5, treated vs control rats): greater density of blood capillaries on the edges of the wound | cicatrizing action, dose-response study (ointment with metformin at 0.02%, 0.1%, and 2%): cicatrizing action for all the concentrations tested | speed of maturation of granulation tissue (rat, in vivo): significantly increases the speed of maturation of granulation tissue
